Measured values reported in ChEMBL document CHEMBL4311999, “3-Hydrazinoisatin-based benzenesulfonamides as novel carbonic anhydrase inhibitors endowed with anticancer activity: Synthesis, in vitro biological evaluation and in silico insights” (Eur J Med Chem, 2019).
pKi: −log10 of the molar value.

Assays:
Carbonic anhydrase 9 = Carbonic anhydrase 9 (Homo sapiens, UniProt Q16790); assay: Inhibition of recombinant human carbonic anhydrase 9 preincubated for 15 mins by phenol red dye based stopped flow CO2 hydration assay
CCRF-CEM = assay: Growth inhibition of human CCRF-CEM cells at 10 uM incubated for 48 hrs by sulforhodamine B assay relative to control; assay type: functional; details: read-out: GI
K562 = assay: Growth inhibition of human K562 cells at 10 uM incubated for 48 hrs by sulforhodamine B assay relative to control; assay type: functional; details: K562, 48 h, read-out: GI
MOLT-4 = assay: Growth inhibition of human MOLT4 cells at 10 uM incubated for 48 hrs by sulforhodamine B assay relative to control; assay type: functional; details: MOLT-4, 48 h, read-out: GI
RPMI-8226 = assay: Growth inhibition of human RPMI8226 cells at 10 uM incubated for 48 hrs by sulforhodamine B assay relative to control; assay type: functional; details: RPMI-8226, 48 h, read-out: GI
EKVX = assay: Growth inhibition of human EKVX cells at 10 uM incubated for 48 hrs by sulforhodamine B assay relative to control; assay type: functional; details: read-out: GI
A549 = assay: Growth inhibition of human A549/ATCC cells at 10 uM incubated for 48 hrs by sulforhodamine B assay relative to control; assay type: functional; details: A549, 48 h, read-out: GI
NCI-H226 = assay: Growth inhibition of human NCI-H226 cells at 10 uM incubated for 48 hrs by sulforhodamine B assay relative to control; assay type: functional; details: NCI-H226, 48 h, read-out: GI
HOP-62 = assay: Growth inhibition of human HOP62 cells at 10 uM incubated for 48 hrs by sulforhodamine B assay relative to control; assay type: functional; details: HOP-62, 48 h, read-out: GI
NCI-H460 = assay: Growth inhibition of human NCI-H460 cells at 10 uM incubated for 48 hrs by sulforhodamine B assay relative to control; assay type: functional; details: NCI-H460, 48 h, read-out: GI
NCI-H522 = assay: Growth inhibition of human NCI-H522 cells at 10 uM incubated for 48 hrs by sulforhodamine B assay relative to control; assay type: functional; details: NCI-H522, 48 h, read-out: GI
HCT-116 = assay: Growth inhibition of human HCT116 cells at 10 uM incubated for 48 hrs by sulforhodamine B assay relative to control; assay type: functional; details: HCT-116, 48 h, read-out: GI
HCT-15 = assay: Growth inhibition of human HCT15 cells at 10 uM incubated for 48 hrs by sulforhodamine B assay relative to control; assay type: functional; details: HCT-15, 48 h, read-out: GI
SNB-75 = assay: Growth inhibition of human SNB75 cells at 10 uM incubated for 48 hrs by sulforhodamine B assay relative to control; assay type: functional; details: SNB-75, 48 h, read-out: GI
SF-539 = assay: Growth inhibition of human SF539 cells at 10 uM incubated for 48 hrs by sulforhodamine B assay relative to control; assay type: functional; details: SF-539, 48 h, read-out: GI
MDA-MB-231 = assay: Growth inhibition of human MDA-MB-231 cells at 10 uM incubated for 48 hrs by sulforhodamine B assay relative to control; assay type: functional; details: MDA-MB-231, 48 h, read-out: GI
MCF7 = assay: Growth inhibition of human MCF7 cells at 10 uM incubated for 48 hrs by sulforhodamine B assay relative to control; assay type: functional; details: MCF7, 48 h, read-out: GI
UO-31 = assay: Growth inhibition of human UO31 cells at 10 uM incubated for 48 hrs by sulforhodamine B assay relative to control; assay type: functional; details: UO-31, 48 h, read-out: GI
PC-3 = assay: Growth inhibition of human PC3 cells at 10 uM incubated for 48 hrs by sulforhodamine B assay relative to control; assay type: functional; details: PC-3, 48 h, read-out: GI
TK-10 = assay: Growth inhibition of human TK10 cells at 10 uM incubated for 48 hrs by sulforhodamine B assay relative to control; assay type: functional; details: TK-10, 48 h, read-out: GI
RXF 393 = assay: Growth inhibition of human RXF393 cells at 10 uM incubated for 48 hrs by sulforhodamine B assay relative to control; assay type: functional; details: RXF 393, 48 h, read-out: GI
ACHN = assay: Growth inhibition of human ACHN cells at 10 uM incubated for 48 hrs by sulforhodamine B assay relative to control; assay type: functional; details: read-out: GI
OVCAR-8 = assay: Growth inhibition of human OVCAR8 cells at 10 uM incubated for 48 hrs by sulforhodamine B assay relative to control; assay type: functional; details: OVCAR-8, 48 h, read-out: GI
NCI/ADR-RES = assay: Growth inhibition of human NCI/ADR-RES cells at 10 uM incubated for 48 hrs by sulforhodamine B assay relative to control; assay type: functional; details: read-out: GI
OVCAR-5 = assay: Growth inhibition of human OVCAR5 cells at 10 uM incubated for 48 hrs by sulforhodamine B assay relative to control; assay type: functional; details: OVCAR-5, 48 h, read-out: GI
UACC-62 = assay: Growth inhibition of human UACC62 cells at 10 uM incubated for 48 hrs by sulforhodamine B assay relative to control; assay type: functional; details: UACC-62, 48 h, read-out: GI
BT-549 = assay: Growth inhibition of human BT549 cells at 10 uM incubated for 48 hrs by sulforhodamine B assay relative to control; assay type: functional; details: BT-549, 48 h, read-out: GI
T47D = assay: Growth inhibition of human T47D cells at 10 uM incubated for 48 hrs by sulforhodamine B assay relative to control; assay type: functional; details: read-out: GI
MDA-MB-468 = assay: Growth inhibition of human MDA-MB-468 cells at 10 uM incubated for 48 hrs by sulforhodamine B assay relative to control; assay type: functional; details: MDA-MB-468, 48 h, read-out: GI
Carbonic anhydrase 1 = Carbonic anhydrase 1 (Homo sapiens, UniProt P00915); assay: Inhibition of recombinant human carbonic anhydrase 1 preincubated for 15 mins by phenol red dye based stopped flow CO2 hydration assay
Chain of Carbonic anhydrase 1 (P00915 whole entry): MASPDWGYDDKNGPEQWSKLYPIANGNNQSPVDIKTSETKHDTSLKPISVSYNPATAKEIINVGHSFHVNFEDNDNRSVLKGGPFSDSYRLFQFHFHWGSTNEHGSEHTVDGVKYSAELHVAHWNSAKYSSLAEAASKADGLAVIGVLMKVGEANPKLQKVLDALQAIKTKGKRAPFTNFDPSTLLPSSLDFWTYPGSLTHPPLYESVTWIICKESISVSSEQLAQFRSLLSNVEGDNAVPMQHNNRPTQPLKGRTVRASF

Carbonic anhydrase 2 = Carbonic anhydrase 2 (Homo sapiens, UniProt P00918); assay: Inhibition of recombinant human carbonic anhydrase 2 preincubated for 15 mins by phenol red dye based stopped flow CO2 hydration assay
Carbonic anhydrase 12 = Carbonic anhydrase 12 (Homo sapiens, UniProt O43570); assay: Inhibition of recombinant human carbonic anhydrase 12 preincubated for 15 mins by phenol red dye based stopped flow CO2 hydration assay
Chain of Carbonic anhydrase 12 (O43570 whole entry): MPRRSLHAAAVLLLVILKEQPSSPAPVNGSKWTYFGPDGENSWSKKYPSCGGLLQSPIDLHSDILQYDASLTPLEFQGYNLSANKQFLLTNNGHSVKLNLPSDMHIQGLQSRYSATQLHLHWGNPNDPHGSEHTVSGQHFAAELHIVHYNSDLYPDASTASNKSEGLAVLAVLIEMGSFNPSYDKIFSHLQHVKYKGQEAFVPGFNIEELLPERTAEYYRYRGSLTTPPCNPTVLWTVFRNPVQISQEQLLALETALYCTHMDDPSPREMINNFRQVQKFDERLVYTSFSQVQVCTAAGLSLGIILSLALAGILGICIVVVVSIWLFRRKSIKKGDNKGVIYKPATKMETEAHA

SR = assay: Growth inhibition of human SR cells at 10 uM incubated for 48 hrs by sulforhodamine B assay relative to control; assay type: functional; details: read-out: GI
SF-268 = assay: Growth inhibition of human SF268 cells at 10 uM incubated for 48 hrs by sulforhodamine B assay relative to control; assay type: functional; details: SF-268, 48 h, read-out: GI
SNB-19 = assay: Growth inhibition of human SNB19 cells at 10 uM incubated for 48 hrs by sulforhodamine B assay relative to control; assay type: functional; details: SNB-19, 48 h, read-out: GI
CAKI-1 = assay: Growth inhibition of human Caki1 cells at 10 uM incubated for 48 hrs by sulforhodamine B assay relative to control; assay type: functional; details: CAKI-1, 48 h, read-out: GI
786-0 = assay: Growth inhibition of human 786-0 cells at 10 uM incubated for 48 hrs by sulforhodamine B assay relative to control; assay type: functional; details: 786-0, 48 h, read-out: GI
OVCAR-4 = assay: Growth inhibition of human OVCAR4 cells at 10 uM incubated for 48 hrs by sulforhodamine B assay relative to control; assay type: functional; details: OVCAR-4, 48 h, read-out: GI
SK-MEL-5 = assay: Growth inhibition of human SK-MEL-5 cells at 10 uM incubated for 48 hrs by sulforhodamine B assay relative to control; assay type: functional; details: SK-MEL-5, 48 h, read-out: GI
Hs-578T = assay: Growth inhibition of human Hs 578T cells at 10 uM incubated for 48 hrs by sulforhodamine B assay relative to control; assay type: functional; details: read-out: GI

Compound CCCN1C(=O)/C(=N\Nc2ccc(S(N)(=O)=O)cc2)c2cc(Br)ccc21 has a pKi (Carbonic anhydrase 9) of 7.25, an inhibition of growth at 10 µM (CCRF-CEM) of 14% and an inhibition of growth at 10 µM (K562) of 21%. The inhibition of growth at 10 µM (MOLT-4) was 12%, the inhibition of growth at 10 µM (RPMI-8226) was 26% and the inhibition of growth at 10 µM (EKVX) was 11%. The inhibition of growth at 10 µM (A549) was 19%, the inhibition of growth at 10 µM (NCI-H226) was 18% and the inhibition of growth at 10 µM (HOP-62) was 13%. The inhibition of growth at 10 µM (NCI-H460) was 22%, the inhibition of growth at 10 µM (NCI-H522) was 31% and the inhibition of growth at 10 µM (HCT-116) was 30%. For the same compound, the inhibition of growth at 10 µM (HCT-15) was 12%, the inhibition of growth at 10 µM (SNB-75) was 27% and the inhibition of growth at 10 µM (SF-539) was 13%. For the same compound, the inhibition of growth at 10 µM (MDA-MB-231) was 10%, the inhibition of growth at 10 µM (MCF7) was 20% and the inhibition of growth at 10 µM (UO-31) was 18%. It also gave an inhibition of growth at 10 µM (PC-3) of 24%, an inhibition of growth at 10 µM (TK-10) of 10% and an inhibition of growth at 10 µM (RXF 393) of 23%. The inhibition of growth at 10 µM (ACHN) was 23%, the inhibition of growth at 10 µM (OVCAR-8) was 24% and the inhibition of growth at 10 µM (NCI/ADR-RES) was 16%. The inhibition of growth at 10 µM (OVCAR-5) was 11%, the inhibition of growth at 10 µM (UACC-62) was 30% and the inhibition of growth at 10 µM (BT-549) was 10%. The inhibition of growth at 10 µM (T47D) was 19% and the inhibition of growth at 10 µM (MDA-MB-468) was 14%.

Work on NS(=O)(=O)c1ccc(N/N=C2\C(=O)Nc3ccc(Br)cc32)cc1 yielded a pKi (Carbonic anhydrase 1) of 5.43, a pKi (Carbonic anhydrase 2) of 7.02 and a pKi (Carbonic anhydrase 9) of 7.61. The pKi (Carbonic anhydrase 12) was 7.18.

With CCN1C(=O)/C(=N\Nc2ccc(S(N)(=O)=O)cc2)c2ccccc21 the pKi (Carbonic anhydrase 9) was 7.59.

Work on CCN1C(=O)/C(=N\Nc2ccc(S(N)(=O)=O)cc2)c2cc(Br)ccc21 yielded a pKi (Carbonic anhydrase 9) of 7.38.

With NS(=O)(=O)c1ccc(N/N=C2\C(=O)N(Cc3ccccc3)c3ccc(Br)cc32)cc1 the pKi (Carbonic anhydrase 1) was less than 5.00, the pKi (Carbonic anhydrase 9) was 7.22 and the inhibition of growth at 10 µM (CCRF-CEM) was 19%. It also gave an inhibition of growth at 10 µM (MOLT-4) of 21%, an inhibition of growth at 10 µM (RPMI-8226) of 10% and an inhibition of growth at 10 µM (SR) of 20%. For the same compound, the inhibition of growth at 10 µM (A549) was 19%, the inhibition of growth at 10 µM (NCI-H226) was 33% and the inhibition of growth at 10 µM (NCI-H460) was 20%. It also gave an inhibition of growth at 10 µM (NCI-H522) of 29%, an inhibition of growth at 10 µM (HCT-116) of 24% and an inhibition of growth at 10 µM (SNB-75) of 46%. It also gave an inhibition of growth at 10 µM (SF-268) of 13%, an inhibition of growth at 10 µM (SF-539) of 25% and an inhibition of growth at 10 µM (SNB-19) of 27%. For the same compound, the inhibition of growth at 10 µM (MDA-MB-231) was 23%, the inhibition of growth at 10 µM (MCF7) was 23% and the inhibition of growth at 10 µM (UO-31) was 18%. It also gave an inhibition of growth at 10 µM (PC-3) of 21%, an inhibition of growth at 10 µM (CAKI-1) of 18% and an inhibition of growth at 10 µM (RXF 393) of 38%. The inhibition of growth at 10 µM (ACHN) was 22%, the inhibition of growth at 10 µM (786-0) was 19% and the inhibition of growth at 10 µM (OVCAR-8) was 26%. For the same compound, the inhibition of growth at 10 µM (NCI/ADR-RES) was 13%, the inhibition of growth at 10 µM (OVCAR-5) was 12% and the inhibition of growth at 10 µM (OVCAR-4) was 19%. The inhibition of growth at 10 µM (UACC-62) was 30%, the inhibition of growth at 10 µM (SK-MEL-5) was 17% and the inhibition of growth at 10 µM (Hs-578T) was 27%. For the same compound, the inhibition of growth at 10 µM (T47D) was 19% and the inhibition of growth at 10 µM (MDA-MB-468) was 13%.

CCN1C(=O)/C(=N\Nc2ccc(S(N)(=O)=O)cc2)c2cc(Cl)ccc21 was tested, and the pKi (Carbonic anhydrase 9) was 8.08.

Work on NS(=O)(=O)c1ccc(N/N=C2\C(=O)Nc3ccc(Cl)cc32)cc1 [GW280670X] yielded a pKi (Carbonic anhydrase 1) of 5.74, a pKi (Carbonic anhydrase 2) of 7.44 and a pKi (Carbonic anhydrase 9) of 8.08. It also gave a pKi (Carbonic anhydrase 12) of 7.92.
